# Experimental data: patent US9738634B2, “Heterocyclic amide compound and herbicide” (SYNGENTA PARTICIPATIONS AG, priority 2013, dated 2017)
# How the values were obtained:
# Format in all cases: in vivo
# Conditions in all cases: treatment dosage 320 g/ha
# [1] = system: barnyard grass; assay: Test Example 1: weedkilling efficacy, preemergent weed treatment in the submerged state; A: barnyard grass
# Outline: (§1)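 Pre-emergence application onto floodwater (4 cm, alluvial soil) on the day of sowing, dose expressed as g/ha from diluted emulsion formulation. Weeds sown with 2.5-leaf transplanted rice as crop; plants held at 25–30 °C in greenhouse and scored against assessment criteria after 3 weeks.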
# [2] = system: bulrush; assay: Test Example 1: weedkilling efficacy, preemergent weed treatment in the submerged state; B: bulrush
# Outline: as §1
# [3] = system: oval-leafed pondweed; assay: Test Example 1: weedkilling efficacy, preemergent weed treatment in the submerged state; C: oval-leafed pondweed
# Outline: as §1
# [4] = system: transplanted rice; assay: Test Example 1: preemergent weed treatment in the submerged state, effect on crop; a: transplanted rice
# Outline: as §1
# [5] = system: barnyard grass; assay: Test Example 2: weedkilling efficacy, growth period weed treatment in the submerged state; A: barnyard grass
# Outline: (§2)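 Weeds treated at the 1-2 leaf stage by application of diluted emulsion onto floodwater (4 cm depth, alluvial soil) at specified g/ha. Grown in greenhouse at 25 to 30° C; herbicidal effect rated three weeks after treatment.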
# [6] = system: bulrush; assay: Test Example 2: weedkilling efficacy, growth period weed treatment in the submerged state; B: bulrush
# Outline: as §2
# [7] = system: oval-leafed pondweed; assay: Test Example 2: weedkilling efficacy, growth period weed treatment in the submerged state; C: oval-leafed pondweed
# Outline: as §2
# [8] = system: crabgrass; assay: Test Example 3: weedkilling efficacy through soil treatment; D: crabgrass
# Outline: (§3)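 Crop and weed responses were judged three weeks after a uniform surface spray of the water-diluted emulsion at the given g/ha rate. Seeds sat beneath about 1.5 cm of sterilized diluvial soil, and boxes stood in a greenhouse at 25 to 30° C.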
# [9] = system: green foxtail; assay: Test Example 3: weedkilling efficacy through soil treatment; E: green foxtail
# Outline: as §3
# [10] = system: barnyard grass; assay: Test Example 3: weedkilling efficacy through soil treatment; F: barnyard grass
# Outline: as §3
# [11] = system: wild oat; assay: Test Example 3: weedkilling efficacy through soil treatment; G: wild oat
# Outline: as §3
# [12] = system: black-grass; assay: Test Example 3: weedkilling efficacy through soil treatment; H: black-grass
# Outline: as §3
# [13] = system: Italian ryegrass; assay: Test Example 3: weedkilling efficacy through soil treatment; I: Italian ryegrass
# Outline: as §3
# [14] = system: common wind-grass; assay: Test Example 3: weedkilling efficacy through soil treatment; J: common wind-grass
# Outline: as §3
# [15] = system: Indian mallow; assay: Test Example 3: weedkilling efficacy through soil treatment; K: Indian mallow
# Outline: as §3
# [16] = system: redroot pigweed; assay: Test Example 3: weedkilling efficacy through soil treatment; L: redroot pigweed
# Outline: as §3
# [17] = system: fig-leafed goosefoot; assay: Test Example 3: weedkilling efficacy through soil treatment; M: fig-leafed goosefoot
# Outline: as §3
# [18] = system: chickweed; assay: Test Example 3: weedkilling efficacy through soil treatment; N: chickweed
# Outline: as §3
# [19] = system: birds-eye speedwell; assay: Test Example 3: weedkilling efficacy through soil treatment; p: birds-eye speedwell
# Outline: as §3
# [20] = system: directly sown rice; assay: Test Example 3: soil treatment, effect on crop; b: directly sown rice
# Outline: as §3
# [21] = system: corn; assay: Test Example 3: soil treatment, effect on crop; c: corn
# Outline: as §3
# [22] = system: soybean; assay: Test Example 3: soil treatment, effect on crop; d: soybean
# Outline: as §3
# [23] = system: wheat; assay: Test Example 3: soil treatment, effect on crop; e: wheat
# Outline: as §3
# [24] = system: beet; assay: Test Example 3: soil treatment, effect on crop; f: beet
# Outline: as §3
# [25] = system: rapeseed; assay: Test Example 3: soil treatment, effect on crop; g: rapeseed
# Outline: as §3
# [26] = system: crabgrass; assay: Test Example 4: weedkilling efficacy by foliar treatment; D: crabgrass
# Outline: (§4)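 Seeds are spot-sown into sterilized diluvial soil and covered with about 1.5 cm of soil. After 14 days' greenhouse growth at 25 to 30° C, plants are sprayed on stems and leaves with diluted emulsion at the stated g/ha rate, then scored at 3 weeks.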
# [27] = system: green foxtail; assay: Test Example 4: weedkilling efficacy by foliar treatment; E: green foxtail
# Outline: as §4
# [28] = system: barnyard grass; assay: Test Example 4: weedkilling efficacy by foliar treatment; F: barnyard grass
# Procedure: (§5) Testing of Weedkilling Efficacy by Foliar Treatment
# (§6) Sterilized diluvial soil was introduced into 21 cm long, 13 cm wide, 7 cm deep plastic boxes, and seeds of crabgrass, green foxtail, barnyard grass, wild oat, black-grass, Italian ryegrass, common wind-grass, Indian mallow, redroot pigweed, fig-leafed goosefoot, chickweed, catchweed, birds-eye speedwell, corn, soybean, rice, wheat, beet and rapeseed were each spot-sown, and covered with about 1.5 cm of soil, then the plants were grown in a greenhouse at 25 to 30° C.
# (§7) After they had grown for 14 days, emulsions of compounds of the present invention prepared according to compounding example 2 were diluted with water to give the specified dosages, and applied uniformly onto the stem and leaf parts with a small sprayer. 3 weeks after the pesticide treatment the effect on each type of plant was investigated on the basis of the assessment criteria of test example 1.
# (§8) A: barnyard grass, B: bulrush, C: oval-leafed pondweed, D: crabgrass, E: green foxtail, F: barnyard grass, G: wild oat, H: black-grass, I: Italian ryegrass, J: common wind-grass, K: Indian mallow, L: redroot pigweed, M: fig-leafed goosefoot, N: chickweed, O: catchweed, p: birds-eye speedwell, a: transplanted rice, b: directly sown rice, c: corn, d: soybean, e: wheat, f: beet, g: rapeseed
# (§9) Further, pesticide dosage (g/ha) indicates the concentration regulated such that treatment was with only the stated number of grams (g), when calculated per hectare (ha).
# [29] = system: wild oat; assay: Test Example 4: weedkilling efficacy by foliar treatment; G: wild oat
# Outline: as §4
# [30] = system: black-grass; assay: Test Example 4: weedkilling efficacy by foliar treatment; H: black-grass
# Outline: as §4
# [31] = system: Italian ryegrass; assay: Test Example 4: weedkilling efficacy by foliar treatment; I: Italian ryegrass
# Outline: as §4
# [32] = system: common wind-grass; assay: Test Example 4: weedkilling efficacy by foliar treatment; J: common wind-grass
# Outline: as §4
# [33] = system: Indian mallow; assay: Test Example 4: weedkilling efficacy by foliar treatment; K: Indian mallow
# Outline: as §4
# [34] = system: redroot pigweed; assay: Test Example 4: weedkilling efficacy by foliar treatment; L: redroot pigweed
# Outline: as §4
# [35] = system: fig-leafed goosefoot; assay: Test Example 4: weedkilling efficacy by foliar treatment; M: fig-leafed goosefoot
# Outline: as §4
# [36] = system: chickweed; assay: Test Example 4: weedkilling efficacy by foliar treatment; N: chickweed
# Outline: as §4
# [37] = system: catchweed; assay: Test Example 4: weedkilling efficacy by foliar treatment; O: catchweed
# Outline: as §4
# [38] = system: directly sown rice; assay: Test Example 4: foliar treatment, effect on crop; b: directly sown rice
# Outline: as §4
# [39] = system: corn; assay: Test Example 4: foliar treatment, effect on crop; c: corn
# Outline: as §4
# [40] = system: soybean; assay: Test Example 4: foliar treatment, effect on crop; d: soybean
# Outline: as §4
# [41] = system: wheat; assay: Test Example 4: foliar treatment, effect on crop; e: wheat
# Outline: as §4
# [42] = system: beet; assay: Test Example 4: foliar treatment, effect on crop; f: beet
# Outline: as §4
# [43] = system: rapeseed; assay: Test Example 4: foliar treatment, effect on crop; g: rapeseed
# Procedure: as §5, §6, §7, §8, §9
smiles,measurement,setting,value
CC1=C(c2cccnc2F)C(=O)N(C(C)(C)C(=O)Nc2cc(C)cc(Cl)n2)CO1 [B-2-15],A (barnyard grass) weedkilling efficacy grade,[1],"5 (weed kill ratio 90% or more, (practically complete withering))"
same,B (bulrush) weedkilling efficacy grade,[2],"5 (weed kill ratio 90% or more, (practically complete withering))"
same,C (oval-leafed pondweed) weedkilling efficacy grade,[3],"5 (weed kill ratio 90% or more, (practically complete withering))"
same,a (transplanted rice) effect on crop grade,[4],"3 (weed kill ratio 40% or more, less than 70%)"
same,A (barnyard grass) weedkilling efficacy grade,[5],"4 (weed kill ratio 70% or more, less than 90%)"
same,B (bulrush) weedkilling efficacy grade,[6],"5 (weed kill ratio 90% or more, (practically complete withering))"
same,C (oval-leafed pondweed) weedkilling efficacy grade,[7],"5 (weed kill ratio 90% or more, (practically complete withering))"
same,D (crabgrass) weedkilling efficacy grade,[8],"5 (weed kill ratio 90% or more, (practically complete withering))"
same,E (green foxtail) weedkilling efficacy grade,[9],"5 (weed kill ratio 90% or more, (practically complete withering))"
same,F (barnyard grass) weedkilling efficacy grade,[10],"5 (weed kill ratio 90% or more, (practically complete withering))"
same,G (wild oat) weedkilling efficacy grade,[11],"3 (weed kill ratio 40% or more, less than 70%)"
same,H (black-grass) weedkilling efficacy grade,[12],"5 (weed kill ratio 90% or more, (practically complete withering))"
same,I (Italian ryegrass) weedkilling efficacy grade,[13],"5 (weed kill ratio 90% or more, (practically complete withering))"
same,J (common wind-grass) weedkilling efficacy grade,[14],"5 (weed kill ratio 90% or more, (practically complete withering))"
same,K (Indian mallow) weedkilling efficacy grade,[15],0 (weed kill ratio 5% or less (practically no effect))
same,L (redroot pigweed) weedkilling efficacy grade,[16],0 (weed kill ratio 5% or less (practically no effect))
same,M (fig-leafed goosefoot) weedkilling efficacy grade,[17],"3 (weed kill ratio 40% or more, less than 70%)"
same,N (chickweed) weedkilling efficacy grade,[18],"2 (weed kill ratio 20% or more, less than 40%)"
same,P (birds-eye speedwell) weedkilling efficacy grade,[19],"4 (weed kill ratio 70% or more, less than 90%)"
same,b (directly sown rice) effect on crop grade,[20],"5 (weed kill ratio 90% or more, (practically complete withering))"
same,c (corn) effect on crop grade,[21],0 (weed kill ratio 5% or less (practically no effect))
same,d (soybean) effect on crop grade,[22],0 (weed kill ratio 5% or less (practically no effect))
same,e (wheat) effect on crop grade,[23],0 (weed kill ratio 5% or less (practically no effect))
same,f (beet) effect on crop grade,[24],"2 (weed kill ratio 20% or more, less than 40%)"
same,g (rapeseed) effect on crop grade,[25],"2 (weed kill ratio 20% or more, less than 40%)"
same,D (crabgrass) weedkilling efficacy grade,[26],"4 (weed kill ratio 70% or more, less than 90%)"
same,E (green foxtail) weedkilling efficacy grade,[27],"5 (weed kill ratio 90% or more, (practically complete withering))"
same,F (barnyard grass) weedkilling efficacy grade,[28],"4 (weed kill ratio 70% or more, less than 90%)"
same,G (wild oat) weedkilling efficacy grade,[29],"3 (weed kill ratio 40% or more, less than 70%)"
same,H (black-grass) weedkilling efficacy grade,[30],"4 (weed kill ratio 70% or more, less than 90%)"
same,I (Italian ryegrass) weedkilling efficacy grade,[31],"5 (weed kill ratio 90% or more, (practically complete withering))"
same,J (common wind-grass) weedkilling efficacy grade,[32],"5 (weed kill ratio 90% or more, (practically complete withering))"
same,K (Indian mallow) weedkilling efficacy grade,[33],"1 (weed kill ratio 5% or more, less than 20%)"
same,L (redroot pigweed) weedkilling efficacy grade,[34],"2 (weed kill ratio 20% or more, less than 40%)"
same,M (fig-leafed goosefoot) weedkilling efficacy grade,[35],"4 (weed kill ratio 70% or more, less than 90%)"
same,N (chickweed) weedkilling efficacy grade,[36],"4 (weed kill ratio 70% or more, less than 90%)"
same,O (catchweed) weedkilling efficacy grade,[37],"3 (weed kill ratio 40% or more, less than 70%)"
same,b (directly sown rice) effect on crop grade,[38],"5 (weed kill ratio 90% or more, (practically complete withering))"
same,c (corn) effect on crop grade,[39],"4 (weed kill ratio 70% or more, less than 90%)"
same,d (soybean) effect on crop grade,[40],"1 (weed kill ratio 5% or more, less than 20%)"
same,e (wheat) effect on crop grade,[41],"2 (weed kill ratio 20% or more, less than 40%)"
same,f (beet) effect on crop grade,[42],"3 (weed kill ratio 40% or more, less than 70%)"
same,g (rapeseed) effect on crop grade,[43],"4 (weed kill ratio 70% or more, less than 90%)"
